Laboratory results published in article PMC6627486, “Ipomoeassin F Binds Sec61α to Inhibit Protein Translocation” (Journal of the American Chemical Society, 2019).
Read-outs that look alike come from different tables or passages of the source.

Tests used:
[1] = test system: IL-2 production by Jurkat T cells; experiment: Activation-induced IL-2 production by Jurkat T cells; type: cell-based, human; conditions: 1 h preincubation then 24 h activation
Procedure: Jurkat E6.1 (ATCC TIB-152TM) T cells were cultured in RPMI GlutamaxTM (Life Technologies),
supplemented with 10% heat-inactivated fetal calf serum (FCS) (Invitrogen) and penicillin/streptomycin
(100 U/ml, 100 µg/ml). […]
FlowJo X software. […]

MDA-MB-231 = experiment: AlamarBlue cytotoxicity assay, MDA-MB-231; type: cell-based, human; conditions: Homo sapiens, MDA-MB-231, 72 h, read-out: Cytotoxicity (IC50)
Procedure: AlamarBlue Cytotoxicity Assay
MDA-MB-231, MCF-10A and HCT116. Viable cells were counted with a hemocytometer immediately before each experiment . Experiments were done in triplicate. First, 100 μL of MDA-MB-231 cells or MCF-10A cells at the density of 50,000 cells/mL was seeded in a 96-well plate (5,000 cells/well) and then incubated at 37 °C and 5% CO2 for 24 h. The compounds were dissolved in DMSO (dimethyl sulfoxide) to make drug stocks (10 mM). The stock solutions were diluted with the complete DMEM high glucose culture medium to make a series of gradient fresh working solutions right before each test. Subsequently, the cells were treated with 100 μL of the freshly made gradient working solution in a total volume of 200 μL/well for 72 h. After that, the media were discarded and 200 μL of the fresh complete medium containing 10% of AlamarBlue (resazurin) stock solution was added to each well. The plate was then incubated at 37 °C and 5% CO2 for another 3 h. Emission of each well at 620 nm was detected by a microplate reader (BioTek Synergy H1) at excitation 580 nm. […]
Microplate Reader. The percentage of viability compared to the negative control (DMSO-treated cells) […]
was determined. […]

Sec61α = target: T1, Sec61α (Homo sapiens, UniProt P61619); experiment: Live cell-based biotin affinity pulldown in MDA-MB-231 cells; type: binding; conditions: live MDA-MB-231 cells
T1 construct: enabling a biotin analogue of ipomoeassin F to pull down Sec61α from live cells; endogenous in cells; host or cells: MDA-MB-231
T1 sequence (P60468 whole entry): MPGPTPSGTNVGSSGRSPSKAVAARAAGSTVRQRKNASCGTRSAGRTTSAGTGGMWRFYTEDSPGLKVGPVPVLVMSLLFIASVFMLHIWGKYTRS
T1 sequence (P60059 whole entry, further chain): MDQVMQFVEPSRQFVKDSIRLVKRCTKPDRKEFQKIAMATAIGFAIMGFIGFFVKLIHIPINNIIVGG
T1 sequence (P61619 whole entry): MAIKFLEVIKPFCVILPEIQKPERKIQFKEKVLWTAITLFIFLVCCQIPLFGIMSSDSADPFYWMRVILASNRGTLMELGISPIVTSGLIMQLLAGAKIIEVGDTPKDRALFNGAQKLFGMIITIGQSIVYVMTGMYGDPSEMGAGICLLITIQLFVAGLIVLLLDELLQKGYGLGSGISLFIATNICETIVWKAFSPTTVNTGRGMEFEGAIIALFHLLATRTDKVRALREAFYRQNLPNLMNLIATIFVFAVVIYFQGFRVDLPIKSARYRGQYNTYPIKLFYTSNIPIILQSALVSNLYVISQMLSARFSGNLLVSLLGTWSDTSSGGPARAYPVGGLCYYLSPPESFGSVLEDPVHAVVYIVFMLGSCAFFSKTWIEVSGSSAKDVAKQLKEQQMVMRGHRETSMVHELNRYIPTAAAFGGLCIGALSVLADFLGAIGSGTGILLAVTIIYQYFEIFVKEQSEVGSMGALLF
Procedure: Activity Based Protein Profiling
MDA-MB-231 cells were seeded in five groups of 6 cm petri dishes with 3 ml DMEM high glucose culture and incubated at 37 °C and 5% CO2 until 90% confluency. […]
After 1 h incubation at 37 °C […]
and 5% CO2, the cells were harvested by scraping and washed with cold PBS for 3 times. The cells were then lysed in 100 µl of lysis buffer 1 (50 mM Hepes, pH 9.0, 100 mM NaCl, 10% glycerol, 5 mM MgCl2, 1 mM CaCl2, 0.2% NP40, 1x protease inhibitor) using ultrasound sonication. The supernatant of each group was collected after centrifugation at 21,100 g and 4 °C for 10 min, and the protein concentration was quantified with a BCA kit. 10% SDS was then added into protein solution to make a final SDS concentration of 0.4%, and the solution was incubated at 95 °C for 5 min. […]
According to the experimental needs, MDA-MB-231 cells were seeded into 3-7 groups of 15-cm tissue-culture dishes and incubated at 37 °C and 5% CO2 until 90% confluency. […] The supernatant of each group was collected after centrifugation at 4 °C and 21,100 g for 10 min, and the protein concentration was quantified with the BCA kit. […]
rotation. […] The other part was analyzed by Western blotting, in which proteins on the nitrocellulose membrane were visualized by either fluorescently labeled streptavidin or an anti-Sec61α antibody. […]

C/C=C(\C)C(=O)O[C@@H]1[C@@H](O)[C@@H]2O[C@H]3[C@H](O[C@@H](CCCCC)CCCCCCC(=O)CCC(=O)OC[C@@H](O2)[C@H]1OC(=O)/C=C/c1ccccc1)O[C@H](C)[C@H](OC(C)=O)[C@@H]3O [ipomoeassin F]
IC50 ([1]; Homo sapiens): 9.9 nM
IC50 (MDA-MB-231): 6.3 nM
competition with probe 7 in pulldown of ∼40 kDa protein (Sec61α; 10 nM 7 + 50 nM ipomoeassin F, 20 nM 7 + 1 μM 8): outcompeted by a 5-fold excess

CC(=C\C=C\C(C)=C\[C@H](O)[C@@H](O)C[C@H](C)O)/C=C(C)/C=C/C(=O)O[C@H]1CCCC(=O)O[C@@H]([C@@H](C)C/C(C)=C/[C@@H](C)[C@H](O)C[C@@H](C)O)C/C=C(\C)C[C@@H]1C [mycolactone, reference compound]
IC50 [1]: 6 nM

C/C=C(\C)C(=O)O[C@H]1[C@H](OC(=O)/C=C/c2ccc(OCc3cn(CCOCCOCCOCCNC(=O)CCCC[C@@H]4SC[C@@H]5NC(=O)N[C@@H]54)nn3)cc2)[C@@H](O)[C@@H]2O[C@H]3[C@H](O[C@@H](CCCCC)CCCCCCC(=O)CCC(=O)OC[C@H]1O2)O[C@H](C)[C@H](OC(C)=O)[C@@H]3O [compound 5]
IC50 (MDA-MB-231; AlamarBlue): 29.5 nM
recovery of ∼40 kDa protein (Sec61α) by biotin probe in streptavidin pulldown (Sec61α; 9 at 500 nM): no proteins were selectively enriched
